Values joined by “and” are separate entries in the source; they are usually repeats but may differ in a detail not shown here. Identical values can stand only once. Inconclusive results and toxic doses are left out. Rule for the calls: active = survival T/C of 150% or more; inactive = T/C below 125% in these data.
System: CD2F1 mice, L1210 leukemia ip, survival T/C
Test: NCI In Vivo Anticancer Drug Screen. Data for tumor model L1210 Leukemia (intraperitoneal) in CD2F1 (CDF1) mice
Details: higher = longer survival
In short: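 Implant tumor; dose compound or vehicle; measure endpoint in both groups; report treated divided by control.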

[1] = endpoint: mean survival time, dose: 100.0 mg/kg/injection, schedule: Q01DX009 (ip), vehicle: saline with Tween-80
[2] = endpoint: mean survival time, dose: 100.0 mg/kg/injection, schedule: Q04DX003 (ip), vehicle: saline with Tween-80
[3] = endpoint: mean survival time, dose: 200.0 mg/kg/injection, schedule: Q01DX009 (ip), vehicle: saline with Tween-80
[4] = endpoint: mean survival time, dose: 200.0 mg/kg/injection, schedule: Q04DX003 (ip), vehicle: saline with Tween-80
[5] = endpoint: mean survival time, dose: 400.0 mg/kg/injection, schedule: Q01DX009 (ip), vehicle: saline with Tween-80
[6] = endpoint: mean survival time, dose: 400.0 mg/kg/injection, schedule: Q04DX003 (ip), vehicle: saline with Tween-80
[7] = endpoint: mean survival time, dose: 50.0 mg/kg/injection, schedule: Q01DX009 (ip), vehicle: saline with Tween-80
[8] = endpoint: mean survival time, dose: 50.0 mg/kg/injection, schedule: Q04DX003 (ip), vehicle: saline with Tween-80

Measured: T/C

O=[N+]([O-])c1ccc2c(c1)CS(=O)(=O)O2
inactive: [1] 109 % of control | [2] 103 % of control | [3] 107 % of control | [4] 100 % of control | [5] 107 % of control | [6] 95 % of control

COC1C(CO)OC(n2c3c(Cl)cccc3c3c4c(c5c6cccc(Cl)c6[nH]c5c32)C(=O)NC4=O)C(O)C1O (stereo not drawn)
inactive: endpoint: median survival time, dose: 12.5 mg/kg/injection, schedule: Q01DX009 (ip), vehicle: distilled water + Tween-80 105 % of control and 112 % of control | endpoint: median survival time, dose: 25.0 mg/kg/injection, schedule: Q01DX009 (ip), vehicle: distilled water + Tween-80 114 % of control | endpoint: median survival time, dose: 36.0 mg/kg/injection, schedule: Q01DX009 (ip), vehicle: distilled water + Tween-80 113 % of control | endpoint: median survival time, dose: 50.0 mg/kg/injection, schedule: Q01DX009 (ip), vehicle: distilled water + Tween-80 112 % of control | endpoint: median survival time, dose: 60.0 mg/kg/injection, schedule: Q01DX009 (ip), vehicle: distilled water + Tween-80 115 % of control | endpoint: median survival time, dose: 100.0 mg/kg/injection, schedule: Q01DX009 (ip), vehicle: distilled water + Tween-80 121 % of control and 103 % of control | endpoint: median survival time, dose: 166.7 mg/kg/injection, schedule: Q01DX009 (ip), vehicle: distilled water + Tween-80 122 % of control | endpoint: median survival time, dose: 200.0 mg/kg/injection, schedule: Q01DX009 (ip), vehicle: distilled water + Tween-80 95 % of control

Clc1ccc2c(NCCN3CCCCCC3)nc(C(Cl)(Cl)Cl)nc2c1
inactive: [7] 94 % of control | [8] 103 % of control | [1] 98 % of control | [2] 94 % of control | [3] 98 % of control | [4] 92 % of control

CCc1ncc(C(C)(O)c2ccc(C)cc2)n1Cc1ccccc1 (stereo not drawn)
inactive: [1] 92 % of control | [3] 90 % of control | [5] 97 % of control

CC1CC[N-]CC1.CC1CC[N-]CC1.CC1CC[N-]CC1.CC1CC[N-]CC1.CS(C)=O.CS(C)=O.[Cl-].[Cl-].[Cl-].[Cl-].[Pt+4].[Rh+3]
inactive: endpoint: mean survival time, dose: 0.2 mg/kg/injection, schedule: Q01DX009 (ip), vehicle: water 97 % of control | endpoint: mean survival time, dose: 0.4 mg/kg/injection, schedule: Q01DX009 (ip), vehicle: water 92 % of control | endpoint: mean survival time, dose: 0.78 mg/kg/injection, schedule: Q04DX003 (ip), vehicle: Klucel (hydroxypropylcellulose) (HPC) 102 % of control | endpoint: mean survival time, dose: 0.8 mg/kg/injection, schedule: Q01DX009 (ip), vehicle: water 93 % of control | endpoint: mean survival time, dose: 1.5 mg/kg/injection, schedule: Q01DX009 (ip), vehicle: water 97 % of control | endpoint: mean survival time, dose: 1.56 mg/kg/injection, schedule: Q04DX003 (ip), vehicle: Klucel (hydroxypropylcellulose) (HPC) 98 % of control | endpoint: mean survival time, dose: 3.0 mg/kg/injection, schedule: Q01DX009 (ip), vehicle: water 92 % of control | endpoint: mean survival time, dose: 3.13 mg/kg/injection, schedule: Q04DX003 (ip), vehicle: Klucel (hydroxypropylcellulose) (HPC) 102 % of control | endpoint: mean survival time, dose: 6.25 mg/kg/injection, schedule: Q04DX003 (ip), vehicle: water 103 % of control

C=C1N(C)c2ccccc2C1(C)C
inactive: endpoint: mean survival time, dose: 0.78 mg/kg/injection, schedule: Q01DX009 (ip), vehicle: saline with Tween-80 104 % of control | endpoint: mean survival time, dose: 1.56 mg/kg/injection, schedule: Q01DX009 (ip), vehicle: saline with Tween-80 101 % of control | endpoint: mean survival time, dose: 3.12 mg/kg/injection, schedule: Q01DX009 (ip), vehicle: saline with Tween-80 97 % of control | endpoint: mean survival time, dose: 6.25 mg/kg/injection, schedule: Q01DX009 (ip), vehicle: saline with Tween-80 98 % of control | endpoint: mean survival time, dose: 12.5 mg/kg/injection, schedule: Q01DX009 (ip), vehicle: saline with Tween-80 92 % of control and 100 % of control | endpoint: mean survival time, dose: 25.0 mg/kg/injection, schedule: Q01DX009 (ip), vehicle: saline with Tween-80 94 % of control | [7] 94 % of control

ClC1=NC(Cl)C(Cl)=N/C1=N\c1ncn[nH]1 (stereo not drawn)
inactive: endpoint: mean survival time, dose: 25.0 mg/kg/injection, schedule: Q04DX003 (ip), vehicle: saline with Tween-80 96 % of control | [8] 95 % of control | endpoint: mean survival time, dose: 100.0 mg/kg/injection, schedule: Q04DX003 (ip), vehicle: saline sonified 93 % of control

O=C(CBr)c1cc(-c2ccc(Cl)cc2)nc2c(Cl)cc(Cl)cc12
inactive: endpoint: mean survival time, dose: 100.0 mg/kg/injection, schedule: Q01DX001 (ip), vehicle: saline 91 % of control | endpoint: mean survival time, dose: 200.0 mg/kg/injection, schedule: Q01DX001 (ip), vehicle: saline 97 % of control | endpoint: mean survival time, dose: 400.0 mg/kg/injection, schedule: Q01DX001 (ip), vehicle: saline 103 % of control

CCCCCOC(=O)CCCc1ccc(N(CCCl)CCCl)cc1
inactive: endpoint: mean survival time, dose: 12.5 mg/kg/injection, schedule: Q01DX009 (ip), vehicle: saline 118 % of control | endpoint: mean survival time, dose: 100.0 mg/kg/injection, schedule: Q01DX009 (ip), vehicle: saline 88 % of control

Cc1cccc(C)c1NC(=O)c1ccccc1O
inactive: [1] 98 % of control | [2] 101 % of control | [3] 97 % of control | [4] 96 % of control | [5] 100 % of control | [6] 102 % of control

Source: PubChem BioAssay AID256 (DTP/NCI, 2004)
